As a reminder, the MBC is the smallest concentration meeting the test's criterion for killing. A word on the MIC: it is the lowest concentration that inhibits growth of the organism.

The record followed here is patent publication US20080214518A1, “Pharmaceutical Composition Comprising an Anti-Bacterial Agent and an Active Ingredient Selected From Carveol, Thymol, Eugenol, Borneol and Carvacrol” (priority 2005, published 2008).

≈ marks a conversion by molar mass, not a printed value. Like-named read-outs stand apart in the source and are kept apart here.

Assay [1] concerns Bacillus subtilis. The assay is described as follows: Static tests to determine MIC and MBC. The format is cell-based. The following applies: exponential growth phase; for MBC: first substance alone; for MIC: antibiotic alone. On the procedure: (§1) The experiment was carried out with several Gram-negative and Gram-positive bacterial strains with different susceptibilities isolated in the hospital environment.
(§2) Antibacterial pharmaceutical compositions according to the invention were prepared by mixing amoxicillin at different concentrations with carveol at a sub-inhibitory concentration of 0.3 g per liter of solution or excipient (equivalent to 0.3 mg/ml). The minimal concentration of amoxicillin in combination with carveol 0.3 mg/ml that produced a bactericidal effect was determined. In each case, antibiotic activity was determined either with amoxicillin alone, or with carveol alone, or with the composition of the invention.
(§3) The experiment was carried out with several resistant bacterial strains isolated in the hospital environment. The antibiotic used was ampicillin, from the beta-lactam family, which is one of the most widely used antibiotics. An antibiotic pharmaceutical composition according to the invention was prepared by mixing ampicillin at different concentrations with carveol at a sub-inhibitory concentration of 0.3 g per liter of solution or excipient. This pharmaceutical composition of the invention was named Ampi-P, for potentiated ampicillin. In each case, antibiotic activity was determined either with ampicillin alone, or with carveol alone, or with the composition of the invention.
(§4) The experiment was carried out with several resistant bacterial strains isolated in the hospital environment. The antibiotic used was cephazolin, from the cephalosporin family, another class of beta-lactams which are among the most widely used antibiotics. An antibiotic pharmaceutical composition according to the invention was prepared by mixing cephazolin at different concentrations with alpha-ionone and beta-ionone at a sub-inhibitory concentration of 0.3 g per liter of solution or excipient. This pharmaceutical composition of the invention was named Cepha-P, for potentiated cephazolin. In each case, antibiotic activity was determined either with cephazolin alone, or with alpha-ionone or beta-ionone alone, or with the composition of the invention.
as §3, with “polymyxin B,” for “ampicillin,”, “peptide” for “beta-lactam”, “oldest” for “most widely used”, “polymyxin B” for “ampicillin”, “Polymix-P,” for “Ampi-P,”, “polymyxin B.” for “ampicillin.”
as §3, with “chloramphenicol,” for “ampicillin,”, “phenicol” for “beta-lactam”, “oldest” for “most widely used”, “chloramphenicol” for “ampicillin”, “Chloram-P,” for “Ampi-P,”, “chloramphenicol.” for “ampicillin.”
(§5) The experiment was carried out with several resistant bacterial strains isolated in the hospital environment. The antibiotic used was chlortetracycline, one of the oldest antibiotics. An antibiotic pharmaceutical composition according to the invention was prepared by mixing chlortetracycline at different concentrations with carveol at a sub-inhibitory concentration of 0.3 g per liter of solution or excipient.

Assay [2] concerns Escherichia coli. Kind of assay: Static tests to determine MIC and MBC. It counts as cell-based. The following applies: exponential growth phase; for MBC: first substance alone; for MIC: antibiotic alone. As to the method: as §1, §2, §3, §4
as §3, with “polymyxin B,” for “ampicillin,”, “peptide” for “beta-lactam”, “oldest” for “most widely used”, “polymyxin B” for “ampicillin”, “Polymix-P,” for “Ampi-P,”, “polymyxin B.” for “ampicillin.”
as §3, with “chloramphenicol,” for “ampicillin,”, “phenicol” for “beta-lactam”, “oldest” for “most widely used”, “chloramphenicol” for “ampicillin”, “Chloram-P,” for “Ampi-P,”, “chloramphenicol.” for “ampicillin.”
as §5

The subject of assay [3] is Salmonella typhimurium. The assay is described as follows: Static tests to determine MIC and MBC. It counts as cell-based. The following applies: exponential growth phase; for MBC: first substance alone; for MIC: antibiotic alone. As to the method: as §1, §2, §3, §4
as §3, with “polymyxin B,” for “ampicillin,”, “peptide” for “beta-lactam”, “oldest” for “most widely used”, “polymyxin B” for “ampicillin”, “Polymix-P,” for “Ampi-P,”, “polymyxin B.” for “ampicillin.”
as §3, with “chloramphenicol,” for “ampicillin,”, “phenicol” for “beta-lactam”, “oldest” for “most widely used”, “chloramphenicol” for “ampicillin”, “Chloram-P,” for “Ampi-P,”, “chloramphenicol.” for “ampicillin.”
as §5

Assay [4] concerns Staphylococcus epidermidis. The assay is described as follows: Static tests to determine MIC and MBC. It counts as cell-based. The following applies: exponential growth phase; for MBC: first substance alone; for MIC: antibiotic alone. On the procedure: as §1
Antibacterial pharmaceutical compositions according to the invention were prepared by mixing amoxicillin at different concentrations with carveol at a sub-inhibitory concentration of 0.3 g per liter of solution or excipient (equivalent to 0.3 mg/ml). The minimal concentration of amoxicillin in combination with carveol 0.3 mg/ml that produced a bactericidal effect was determined. In each case, antibiotic activity was determined either with amoxicillin alone, or with carveol alone, or with the composition of the invention. […]

The subject of assay [5] is amoxicillin-resistant Klebsiella pneumoniae. Kind of assay: In vivo test in mice experimentally infected by intraperitoneal injection. The following applies: organs of mice which died during the experiment; amoxicillin alone 10 mg/kg/day by gavage. On the procedure:
Groups of 10 mice were experimentally infected by intraperitoneal injection of 1,000,000 cells (colony-forming units) of amoxicillin-resistant Klebsiella pneumoniae.
The first group was composed of control mice which were infected and untreated.
The second group was composed of infected mice treated by gavage, 24 h post-infection, with amoxicillin alone at a dose of 10 mg/kg of body weight/day.
The third group was composed of infected mice treated by gavage, 24 h post-infection, with carveol alone at a dose of 120 mg/kg of body weight/day.
The fourth group was composed of infected mice treated by gavage, 24 h post-infection, with the pharmaceutical composition of the invention (AMOX-P) at a dose of 2 mg/kg of body weight/day of amoxicillin and 120 mg/kg of body weight/day of carveol.
The survival rate was measured over time. […] All the other mice died between the second and third day post-infection.

Assay [6] relates to Escherichia coli strains susceptible to 5 μg/ml amoxicillin. The format is cell-based. On the procedure:
Escherichia coli strains susceptible to 5 μg/ml amoxicillin were cultured in the presence of a sub-inhibitory concentration of 3 μg/ml, then seeded into nutrient medium (Muller Hinton) containing increasing concentrations of amoxicillin (4 then 5 then 6 μg/ml . . . ). The same procedure was carried out with amoxicillin potentiated by carvacrol at a concentration two times lower than the MIC of carvacrol alone, namely 500 μg/ml. This experiment was based on the principle that at each subcloning, a mutant resistant to the new amoxicillin concentration would multiply, giving rise to a strain more resistant than the strain from which the subcloning arose.

Assay [7] has as its system Mycobacterium fleii. Kind of assay: Static tests to determine MIC and MBC. The following applies: for MIC: antibiotic alone, exponential growth phase. It counts as cell-based.
The test system of assay [8] is Mycobacterium fortuitum. Kind of assay: Static tests to determine MIC and MBC. The following applies: Mycolicibacterium fortuitum; for MIC: antibiotic alone, exponential growth phase. The format is cell-based.
Assay [9] concerns bacterial strains isolated in the hospital environment. Kind of assay: Static MIC/MBC tests, potentiation over all tested strains. The format is cell-based. The following applies: antibiotic combined with carveol, alpha-ionone or beta-ionone at 0.3 mg/ml. As to the method: as §1, §2
The experiment was carried out with several resistant bacterial strains isolated in the hospital environment. The antibiotic used was ampicillin, from the beta-lactam family, which is one of the most widely used antibiotics. […] In each case, antibiotic activity was determined either with ampicillin alone, or with carveol alone, or with the composition of the invention.
The experiment was carried out with several resistant bacterial strains isolated in the hospital environment. […] In each case, antibiotic activity was determined either with cephazolin alone, or with alpha-ionone or beta-ionone alone, or with the composition of the invention.
The experiment was carried out with several resistant bacterial strains isolated in the hospital environment. […] This pharmaceutical composition of the invention was named Polymix-P, for potentiated polymyxin B. In each case, antibiotic activity was determined either with polymyxin B alone, or with carveol alone, or with the composition of the invention.
The experiment was carried out with several resistant bacterial strains isolated in the hospital environment. […] In each case, antibiotic activity was determined either with chloramphenicol alone, or with carveol alone, or with the composition of the invention. […]

Assay [10] concerns Staphylococcus aureus. The assay is described as follows: Static tests to determine MIC and MBC. The following applies: Staphylococcus aureus; antibiotic alone; exponential growth phase. The format is cell-based. As to the method: as §1, §2
(§6) The experiment was carried out with several resistant bacterial strains isolated in the hospital environment. The antibiotic used was chlortetracycline, one of the oldest antibiotics. An antibiotic pharmaceutical composition according to the invention was prepared by mixing chlortetracycline at different concentrations with carveol at a sub-inhibitory concentration of 0.3 g per liter of solution or excipient. […] In each case, antibiotic activity was determined either with chlortetracycline alone, or with carveol alone, or with the composition of the invention.
as §6, with “streptomycin, an important member” for “chlortetracycline, one”, “aminoside family which is among the most important” for “oldest”, “streptomycin” for “chlortetracycline”
as §6, with “erythromycin, an important member” for “chlortetracycline, one”, “macrolide family which is among the most important” for “oldest”, “erythromycin” for “chlortetracycline”

Assay [11] relates to resistant mycobacterial strains isolated in a veterinary environment. The assay is described as follows: Static MIC/MBC tests, potentiation over tested mycobacterial strains. The following applies: antibiotic combined with carvacrol or thymol at 0.3 mg/ml. The format is cell-based.
The mark [12] stands for this setting: starting from 3 μg/ml, potentiated: carvacrol 500 μg/ml.
Where [13] appears, read: Bacillus subtilis, read-out: MIC.
Setting [14] is: Escherichia coli, read-out: MIC.
Setting [15] is: Salmonella enterica, TYPHIMURIUM, read-out: MIC.
Setting [16] is: Staphylococcus epidermidis, read-out: MIC.

Regarding `CC(=O)/C=C/C1C(C)=CCCC1(C)C` (stereo not drawn) [Alpha-ionone, alpha-ionone], the minimum bactericidal concentration (MBC) in assay [1], in [2], in assay [3] and in assay [4] was 2000 mg/L in each case.

With `CC1(C)S[C@@H]2[C@H](NC(=O)[C@H](N)c3ccc(O)cc3)C(=O)N2[C@H]1C(=O)O` [Amoxicillin, amoxicillin], the “Klebsiella pneumoniae loads in kidney, lung and bone marrow” value in assay [5] is reported as “high loads”. Moreover, the “Final conc. (to which resistant mutants were selected)” value in [6] (50 μg/ml was the highest concentration in the experiment) was determined as 50 µg/mL. In assay [6] (starting from 3 μg/ml), the “No. of subclonings (to reach final conc.)” value is recorded as 9. In assay [6] (setting [12]), the “Median conc. (to which resistant mutants were selected)” value is 17 µg/mL and the “No. of subclonings (to reach median conc.)” value turned out to be 4.

`CC1(C)S[C@@H]2[C@H](NC(=O)[C@H](N)c3ccccc3)C(=O)N2[C@H]1C(=O)O` [Ampicillin, ampicillin]: the MIC in assay [1] (setting [13]), in [2] (setting [14]), in [3] (setting [15]) and in assay [4] (setting [16]) was greater than 50 mg/L throughout.

As to `CC(=O)/C=C/C1=C(C)CCCC1(C)C` [Beta-ionone, beta-ionone], the MBC in assay [1], in assay [2], in assay [3] and in assay [4] was 2000 mg/L each time.

As to `Cc1ccc(C(C)C)cc1O` [Carvacrol, carvacrol], the MBC in assay [7] and in [8] was 1000 mg/L (≈ 6.66 mM) throughout.

Consider `Cc1nnc(SCC2=C(C(=O)O)N3C(=O)[C@@H](NC(=O)Cn4cnnn4)[C@H]3SC2)s1` [Cephazolin, cephazolin], for which the minimal inhibitory concentration (MIC) in assay [1], in assay [2], in assay [3] and in assay [4] was greater than 50 mg/L throughout. Further, the “times lower antibiotic concentration producing bactericidal activity versus antibiotic alone” value in assay [9] is “at least ten”.

In the case of `O=C(N[C@H](CO)[C@H](O)c1ccc([N+](=O)[O-])cc1)C(Cl)Cl` [Chloramphenicol, chloramphenicol], the MIC in [1] (setting [13]), in assay [2] (setting [14]), in assay [3] (setting [15]) and in assay [4] (setting [16]) was greater than 50 mg/L throughout.

For `CN(C)[C@@H]1C(O)=C(C(N)=O)C(=O)[C@@]2(O)C(O)=C3C(=O)c4c(O)ccc(Cl)c4[C@@](C)(O)[C@H]3C[C@@H]12` [Chlortetracycline, chlortetracycline], the minimum inhibitory concentration (MIC) in assay [1] (setting [13]), in [2] (setting [14]), in assay [3] (setting [15]) and in assay [10] was greater than 50 mg/L each time.

With `CC[C@H]1OC(=O)[C@H](C)[C@@H](O[C@H]2C[C@@](C)(OC)[C@@H](O)[C@H](C)O2)[C@H](C)[C@@H](O[C@@H]2O[C@H](C)C[C@H](N(C)C)[C@H]2O)[C@](C)(O)C[C@@H](C)C(=O)[C@H](C)[C@@H](O)[C@]1(C)O` [Erythromycin, erythromycin], the minimum inhibitory concentration (MIC) in assay [1] (setting [13]), in assay [2] (setting [14]), in [3] (setting [15]) and in [10] was greater than 50 mg/L in each case. In assay [9], the “times lower antibiotic concentration producing bactericidal activity versus antibiotic alone” value is given as “two to five”.

As to `NNC(=O)c1ccncc1` [Isoniazide, isoniazide], the “times lower antibiotic concentration producing bactericidal activity versus antibiotic alone” value in [11] is given as “at least 25 times”. The MIC in [7] and in assay [8] was greater than 50 mg/L in each case.

Take `CO[C@H]1/C=C/O[C@@]2(C)Oc3c(C)c(O)c4c(O)c(c(/C=N/N5CCN(C)CC5)c(O)c4c3C2=O)NC(=O)/C(C)=C\C=C\[C@H](C)[C@H](O)[C@@H](C)[C@@H](O)[C@@H](C)[C@H](OC(C)=O)[C@@H]1C` [Rifampicin, rifampicin]: the “times lower antibiotic concentration producing bactericidal activity versus antibiotic alone” value in assay [11] was “at least 25 times”. The MIC in assay [7] and in assay [8] was greater than 75 mg/L in each case.

On to `[H]/N=C(/N)N[C@H]1[C@H](O)[C@@H](O)[C@H](O[C@@H]2O[C@@H](C)[C@](O)(C=O)[C@H]2O[C@@H]2O[C@@H](CO)[C@H](O)[C@@H](O)[C@@H]2NC)[C@@H](N/C(N)=N\[H])[C@@H]1O` [Streptomycin, streptomycin], for which the minimum inhibitory concentration (MIC) in [1] (setting [13]), in assay [2] (setting [14]), in assay [3] (setting [15]) and in assay [10] was greater than 50 mg/L in each case. The “times lower antibiotic concentration producing bactericidal activity versus antibiotic alone” value in assay [9] is recorded as “at least 10 times”.

Consider polymyxin B, for which the minimal inhibitory concentration (MIC) in [1] was greater than 50 mg/L; in assay [2] it was greater than 50 mg/L; in assay [3], 25 mg/L; in assay [4] it was greater than 50 mg/L.
